Source: PubChem BioAssay (NCI)
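Assay format: 96-well plates, 48-hour exposure. At the GI50, growth is halved. At the TGI there is no net growth.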

Experiments:
Experiment in all cases: NCI tumour cell line growth inhibition, 48 h
[1] = system: MDA-MB-435
[2] = system: MCF7 breast
[3] = system: ACHN renal
[4] = system: LOX IMVI melanoma
[5] = system: PC-3 prostate
[6] = system: SNB-19 CNS
[7] = system: DU-145 prostate
[8] = system: BT-549 breast
[9] = system: OVCAR-3 ovarian
[10] = system: MOLT-4 leukemia
[11] = system: SN12C renal
[12] = system: RPMI-8226 leukemia
[13] = system: SK-MEL-28 melanoma
[14] = system: OVCAR-4 ovarian
[15] = system: SNB-75 CNS
[16] = system: NCI-H23 lung
[17] = system: NCI/ADR-RES ovarian
[18] = system: M14 melanoma
[19] = system: HCC-2998 colon
[20] = system: SK-MEL-5 melanoma
[21] = system: SW-620 colon
[22] = system: CAKI-1 renal
[23] = system: A498 renal
[24] = system: OVCAR-8 ovarian
[25] = system: OVCAR-5 ovarian
[26] = system: HOP-92 NSCLC
[27] = system: RXF 393 renal
[28] = system: SK-OV-3 ovarian
[29] = system: UACC-62 melanoma
[30] = system: SF-268 CNS
[31] = system: NCI-H226 lung
[32] = system: T-47D breast
[33] = system: SF-295 CNS
[34] = system: UACC-257 melanoma
[35] = system: UO-31 renal
[36] = system: COLO 205 colon
[37] = system: SR leukemia
[38] = system: CCRF-CEM leukemia
[39] = system: 786-0 renal
[40] = system: HCT-116 colon
[41] = system: HL-60(TB) leukemia
[42] = system: SK-MEL-2 melanoma
[43] = system: IGROV1 ovarian
[44] = system: SF-539 CNS
[45] = system: HT29 colon
[46] = system: MDA-MB-231 breast
[47] = system: NCI-H460 lung
[48] = system: U251 CNS
[49] = system: K-562 leukemia
[50] = system: KM12 colon
[51] = system: NCI-H522 lung
[52] = system: HCT-15 colon
[53] = system: MALME-3M melanoma
[54] = system: A549 NSCLC
[55] = system: HOP-62 NSCLC
[56] = system: TK-10 renal
[57] = system: HS 578T breast

How did the GI50 [1] turn out when `O=C(Nc1cccc(-c2cccc(F)c2)c1)C1CCN(Cc2cccc3cccnc23)CC1` was run?
The GI50 was 1.69 µM.

What about the TGI [1] of the same compound?
Its TGI is 3.19 µM.

And the GI50 [2]?
The GI50 was 1.8 µM.

What about the TGI [2] of the same compound?
The TGI was 4.16 µM.

What about the GI50 [3] of the same compound?
The GI50 was 2.28 µM.

And the TGI [3]?
Its TGI is 5.67 µM.

What about the GI50 [4] of the same compound?
Its GI50 is 1.59 µM.

What about the TGI [4] of the same compound?
Its TGI is 3.12 µM.

What about the GI50 [5] of the same compound?
Its GI50 is 2.21 µM.

What about the TGI [5] of the same compound?
The TGI was 7.09 µM.

What about the GI50 [6] of the same compound?
The GI50 was 2 µM.

And the TGI [6]?
The TGI was 4.83 µM.

And the GI50 [7]?
Its GI50 is 4.36 µM.

And the TGI [7]?
The TGI was 15.6 µM.

What about the GI50 [8] of the same compound?
The GI50 was 1.79 µM.

And the TGI [8]?
Its TGI is 3.3 µM.

And the GI50 [9]?
Its GI50 is 3.51 µM.

What about the TGI [9] of the same compound?
Its TGI is 13.2 µM.

And the GI50 [10]?
Its GI50 is 1.66 µM.

What about the TGI [10] of the same compound?
Its TGI is 4.77 µM.

What about the GI50 [11] of the same compound?
Its GI50 is 1.97 µM.

And the TGI [11]?
Its TGI is 4.83 µM.

And the GI50 [12]?
Its GI50 is 1.95 µM.

What about the TGI [12] of the same compound?
The TGI was 4.49 µM.

What about the GI50 [13] of the same compound?
The GI50 was 1.82 µM.

What about the TGI [13] of the same compound?
The TGI was 3.57 µM.

And the GI50 [14]?
Its GI50 is 3.57 µM.

What about the TGI [14] of the same compound?
Its TGI is 14.1 µM.

And the GI50 [15]?
The GI50 was 2.4 µM.

What about the TGI [15] of the same compound?
Its TGI is 11.7 µM.

What about the GI50 [16] of the same compound?
The GI50 was 3.16 µM.

What about the TGI [16] of the same compound?
Its TGI is 13 µM.

And the GI50 [17]?
Its GI50 is 2.76 µM.

And the TGI [17]?
The TGI was 10.2 µM.

What about the GI50 [18] of the same compound?
The GI50 was 1.75 µM.

And the TGI [18]?
The TGI was 3.3 µM.

And the GI50 [19]?
The GI50 was 1.77 µM.

What about the TGI [19] of the same compound?
The TGI was 3.29 µM.

And the GI50 [20]?
The GI50 was 1.64 µM.

And the TGI [20]?
The TGI was 3.06 µM.

What about the GI50 [21] of the same compound?
Its GI50 is 1.71 µM.

And the TGI [21]?
The TGI was 3.57 µM.

What about the GI50 [22] of the same compound?
Its GI50 is 1.96 µM.

What about the TGI [22] of the same compound?
The TGI was 4.07 µM.

And the GI50 [23]?
Its GI50 is 2.06 µM.

And the TGI [23]?
Its TGI is 7.09 µM.

What about the GI50 [24] of the same compound?
Its GI50 is 3.53 µM.

What about the TGI [24] of the same compound?
Its TGI is 13.8 µM.

What about the GI50 [25] of the same compound?
Its GI50 is 2.93 µM.

What about the TGI [25] of the same compound?
The TGI was 11.8 µM.

And the GI50 [26]?
Its GI50 is 2.03 µM.

What about the TGI [26] of the same compound?
Its TGI is 7.22 µM.

And the GI50 [27]?
Its GI50 is 1.57 µM.

What about the TGI [27] of the same compound?
Its TGI is 3.47 µM.

And the GI50 [28]?
The GI50 was 4.67 µM.

What about the TGI [28] of the same compound?
The TGI was 16.9 µM.

And the GI50 [29]?
Its GI50 is 1.73 µM.

What about the TGI [29] of the same compound?
Its TGI is 3.28 µM.

What about the GI50 [30] of the same compound?
The GI50 was 4.05 µM.

What about the TGI [30] of the same compound?
The TGI was 16.1 µM.

And the GI50 [31]?
The GI50 was 3.15 µM.

And the TGI [31]?
The TGI was 17.2 µM.

What about the GI50 [32] of the same compound?
The GI50 was 2 µM.

What about the TGI [32] of the same compound?
The TGI was 5.83 µM.

What about the GI50 [33] of the same compound?
Its GI50 is 1.8 µM.

And the TGI [33]?
The TGI was 3.6 µM.

What about the GI50 [34] of the same compound?
Its GI50 is 1.83 µM.

What about the TGI [34] of the same compound?
Its TGI is 3.75 µM.

What about the GI50 [35] of the same compound?
Its GI50 is 1.73 µM.

What about the TGI [35] of the same compound?
The TGI was 4.11 µM.

What about the GI50 [36] of the same compound?
The GI50 was 1.62 µM.

What about the TGI [36] of the same compound?
The TGI was 3.29 µM.

What about the GI50 [37] of the same compound?
Its GI50 is 1.66 µM.

What about the TGI [37] of the same compound?
Its TGI is 4.46 µM.

And the GI50 [38]?
Its GI50 is 2.67 µM.

What about the TGI [38] of the same compound?
Its TGI is 11.2 µM.

What about the GI50 [39] of the same compound?
Its GI50 is 1.58 µM.

And the TGI [39]?
Its TGI is 3.02 µM.

What about the GI50 [40] of the same compound?
Its GI50 is 1.71 µM.

And the TGI [40]?
The TGI was 3.08 µM.

And the GI50 [41]?
Its GI50 is 1.94 µM.

What about the TGI [41] of the same compound?
The TGI was 4.2 µM.

What about the GI50 [42] of the same compound?
Its GI50 is 2.03 µM.

And the TGI [42]?
The TGI was 4.29 µM.

What about the GI50 [43] of the same compound?
The GI50 was 2.1 µM.

And the TGI [43]?
The TGI was 4.74 µM.

What about the GI50 [44] of the same compound?
Its GI50 is 1.8 µM.

And the TGI [44]?
Its TGI is 3.56 µM.

And the GI50 [45]?
Its GI50 is 1.51 µM.

What about the TGI [45] of the same compound?
The TGI was 3.17 µM.

And the GI50 [46]?
Its GI50 is 1.9 µM.

What about the TGI [46] of the same compound?
The TGI was 3.99 µM.

And the GI50 [47]?
Its GI50 is 1.92 µM.

What about the TGI [47] of the same compound?
Its TGI is 3.77 µM.

And the GI50 [48]?
Its GI50 is 1.85 µM.

What about the TGI [48] of the same compound?
Its TGI is 3.73 µM.

And the GI50 [49]?
The GI50 was 1.52 µM.

And the TGI [49]?
The TGI was 3.87 µM.

What about the GI50 [50] of the same compound?
Its GI50 is 3.16 µM.

What about the TGI [50] of the same compound?
The TGI was 10.3 µM.

What about the GI50 [51] of the same compound?
The GI50 was 2.16 µM.

And the TGI [51]?
Its TGI is 5.1 µM.

What about the GI50 [52] of the same compound?
The GI50 was 1.79 µM.

What about the TGI [52] of the same compound?
The TGI was 5.16 µM.

What about the GI50 [53] of the same compound?
Its GI50 is 1.65 µM.

And the TGI [53]?
The TGI was 3.28 µM.

What about the GI50 [54] of the same compound?
The GI50 was 3.47 µM.

What about the TGI [54] of the same compound?
Its TGI is 13 µM.

What about the GI50 [55] of the same compound?
The GI50 was 3.78 µM.

What about the TGI [55] of the same compound?
The TGI was 15.7 µM.

What about the GI50 [56] of the same compound?
The GI50 was 4.3 µM.

And the TGI [56]?
The TGI was 16.7 µM.

And the GI50 [57]?
The GI50 was 1.91 µM.

What about the TGI [57] of the same compound?
The TGI was 4.55 µM.
